Test system: MCF7 multi-cell spheroids with HUVEC/MSC, viability
Test: Anticancer human tumor MCF7 cell line growth inhibition [IpAb];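 further: spheroids exposed to agents for seven days before readout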
Conditions: for IC50: curve of first compound; for viability, T/C: stronger effect = lower value
Description: Combinatorial screen of targeted agents with ipatasertib and abemaciclib in multi-cell type tumor spheroids
A high-throughput screen of multi-cell type tumor spheroids was designed to identify active combinations of targeted small molecules and ipatasertib or abemaciclib. Complex spheroids include a stromal component modeled by human endothelial cells (HUVEC) and fibroblasts modeled by human mesenchymal stem cells (MSCs). The concentration ranges selected for each drug and investigational agent were based upon clinically achievable concentrations if the clinical Cmax of the agent was known.
Compounds. The drugs and investigational agents: ipatasertib (NSC767898), abemaciclib(NSC768073), selumetinib (NSC741078), trametinib (758246), adavosertib (NSC754352), everolimus (NSC733504), sapanisertib (NSC764658), vemurafenib (NSC761431), venetoclax (NSC766270), copanlisib (NSC809693), apelisib (NSC765974), palbociblib (NSC758247), vemurafenib (NSC761431), dabrafenib (NSC764134), ravoxertinib (NSC781343), BMS-387032 (NSC767048), sotorasib (NSC818433), talazoparib (NSC767125) and afursertib (NSC778305), were obtained from the National Cancer Institute (NCI) Developmental Therapeutics Program Chemical Repository. The FDA-approved anticancer drug set is available from the NCI Developmental Therapeutics Program. […] The stock solutions were prepared in dimethyl sulfoxide (DMSO, Sigma-Aldrich, St. Louis, MO, cat. D2650) at 800-fold the tested concentration and stored at -70 degrees C prior to their use. All drugs and investigational agents were tested over a range starting from a high concentration at or near the clinical Cmax and decreasing in half-log increments. If the clinical Cmax for an agent had not been determined, the highest concentration tested was 10 microM.
NCI60 Cell Culture. NCI60 cell lines were obtained from the NCI Developmental Therapeutics Program Tumor Repository. For each lot of cells, the Repository performed Applied Biosystems AmpFLSTR Identifiler testing with PCR amplification to confirm consistency with the published Identifier STR profile for each cell line. Cells were kept in continuous culture for no more than 20 passages. The optimal seeding densities for each of the cell lines at each time point assessed were determined prior to performing the concentration response studies. Briefly, the NCI60 human tumor lines were grown as monolayers in RPMI 1640 medium supplemented with 10% FBS and 2 mmol/L L-glutamine.
An additional 9 lines were from the NCI60 cell line panel including MDA-MB-231 breast carcinoma, MDA-MB-468 breast carcinoma, MCF7 breast carcinoma, Hs578T breast carcinoma, MALME-3M melanoma, SK-MEL-2 melanoma, SK-OV-3 ovarian carcinoma, DU-145 prostate carcinoma, PC-3 prostate carcinoma, all cell lines along with major genetic alterations are listed on Table 2. Pooled donor human umbilical vein endothelial cells (HUVEC, Lonza, cat. CC-2519) and human mesenchymal stem cells (hMSC, Lonza, cat. PT-2501) were purchased from Lonza (Walkersville, MD).
PDMR cell lines were grown in complete medium (DC medium): Dulbecco's modified Eagle's medium (DMEM)/F12 supplemented with 5% fetal bovine serum (FBS), 2 mM L-glutamine, 100 U/mL penicillin and 100 µg/ml streptomycin, 0.4 µg/ml hydrocortisone, 10 ng/ml epidermal growth factor (EGF) recombinant human protein, 24 µg/mL adenine, and 0.1 mg/mL primocin. During culture from frozen stock vials, PDMR cells were cultured in the same medium containing 10 µM Y-27632 (see Table 3). The PDCs were cultured in complete DMEM/F12 media without 10 microM Y-27632 dihydrochloride for at least two passages prior to the screen. The pooled donor HUVEC and hMSC were cultured in endothelial cell growth medium 2 (PromoCell, Heidelberg, Germany, cat. C-22011) and mesenchymal stem cell growth medium 2 (PromoCell, cat. C-28009), respectively. For all experiments, HUVEC and hMSC were used at passages </=5.
[…]

[1] = second compound 0.1 µM, first compound 0.00949 µM
[2] = second compound 0.1 µM, first compound 0.03 µM
[3] = second compound 0.1 µM, first compound 0.0949 µM
[4] = second compound 0.1 µM, first compound 0.3 µM
[5] = second compound 0.1 µM, first compound 0.949 µM
[6] = second compound 0.1 µM, first compound 3 µM
[7] = second compound 0.316 µM, first compound 0.00949 µM
[8] = second compound 0.316 µM, first compound 0.03 µM
[9] = second compound 0.316 µM, first compound 0.0949 µM
[10] = second compound 0.316 µM, first compound 0.3 µM
[11] = second compound 0.316 µM, first compound 0.949 µM
[12] = second compound 0.316 µM, first compound 3 µM
[13] = second compound 1 µM, first compound 0.00949 µM
[14] = second compound 1 µM, first compound 0.03 µM
[15] = second compound 1 µM, first compound 0.0949 µM
[16] = second compound 1 µM, first compound 0.3 µM
[17] = second compound 1 µM, first compound 0.949 µM
[18] = second compound 1 µM, first compound 3 µM

| Compound | IC50 (second compound 0.1 µM) [µM] | IC50 (second compound 0.316 µM) [µM] | IC50 (second compound 1 µM) [µM] | viability, T/C [1] [%] | viability, T/C [2] [%] | viability, T/C [3] [%] | viability, T/C [4] [%] | viability, T/C [5] [%] | viability, T/C [6] [%] | viability, T/C [7] [%] | viability, T/C [8] [%] | viability, T/C [9] [%] | viability, T/C [10] [%] | viability, T/C [11] [%] | viability, T/C [12] [%] | viability, T/C [13] [%] | viability, T/C [14] [%] | viability, T/C [15] [%] | viability, T/C [16] [%] | viability, T/C [17] [%] | further results |
| --- | --- | --- | --- | --- | --- | --- | --- | --- | --- | --- | --- | --- | --- | --- | --- | --- | --- | --- | --- | --- | --- |
| Cn1cnc2c(F)c(Nc3ccc(Br)cc3Cl)c(C(=O)NOCCO)cc21 + CCN1CCN(Cc2ccc(Nc3ncc(F)c(-c4cc(F)c5nc(C)n(C(C)C)c5c4)n3)nc2)CC1 | > 3 | > 3 | > 3 | 130 | 120 | 117 | 127 | 127 | 113 | 119 | 132 | 132 | 126 | 120 | 108 | 107 | 110 | 107 | 95.5 | 88.5 | IC50 (second compound 0.01 µM): > 3 µM; IC50 (second compound 0.0316 µM): > 3 µM; viability, T/C (second compound 0.01 µM, first compound 0.00949 µM): 104%; viability, T/C (second compound 0.01 µM, first compound 0.03 µM): 121%; viability, T/C (second compound 0.01 µM, first compound 0.0949 µM): 103%; viability, T/C (second compound 0.01 µM, first compound 0.3 µM): 113%; viability, T/C (second compound 0.01 µM, first compound 0.949 µM): 125%; viability, T/C (second compound 0.01 µM, first compound 3 µM): 100%; viability, T/C (second compound 0.0316 µM, first compound 0.00949 µM): 94.4%; viability, T/C (second compound 0.0316 µM, first compound 0.03 µM): 113%; viability, T/C (second compound 0.0316 µM, first compound 0.0949 µM): 109%; viability, T/C (second compound 0.0316 µM, first compound 0.3 µM): 116%; viability, T/C (second compound 0.0316 µM, first compound 0.949 µM): 119%; viability, T/C (second compound 0.0316 µM, first compound 3 µM): 99%; viability, T/C [18]: 88.5% |
| Cn1cnc2c(F)c(Nc3ccc(Br)cc3Cl)c(C(=O)NOCCO)cc21 + CC(C)NCC(C(=O)N1CCN(c2ncnc3c2C(C)CC3O)CC1)c1ccc(Cl)cc1 | > 3 | > 3 | 1.41 | 87.8 | 89.6 | 92.5 | 86.2 | 95 | 82.5 | 80.8 | 86.2 | 89.8 | 77.9 | 82.5 | 67 | 58.7 | 73.4 | 67.4 | 50.9 | 54.4 | IC50 (second compound 3.16 µM): < 0.00949 µM; IC50 (second compound 10 µM): < 0.00949 µM; viability, T/C [18]: 44.7%; viability, T/C (second compound 3.16 µM, first compound 0.00949 µM): 43%; viability, T/C (second compound 3.16 µM, first compound 0.03 µM): 48.5%; viability, T/C (second compound 3.16 µM, first compound 0.0949 µM): 43.5%; viability, T/C (second compound 3.16 µM, first compound 0.3 µM): 38.4%; viability, T/C (second compound 3.16 µM, first compound 0.949 µM): 40.8%; viability, T/C (second compound 3.16 µM, first compound 3 µM): 31.3%; viability, T/C (second compound 10 µM, first compound 0.00949 µM): 30.7%; viability, T/C (second compound 10 µM, first compound 0.03 µM): 41.4%; viability, T/C (second compound 10 µM, first compound 0.0949 µM): 37.5%; viability, T/C (second compound 10 µM, first compound 0.3 µM): 34.8%; viability, T/C (second compound 10 µM, first compound 0.949 µM): 35.5%; viability, T/C (second compound 10 µM, first compound 3 µM): 27.5% |

From PubChem BioAssay AID2060329 (Molecular Pharmacology Branch, DTP, NCI, 2025)
